Read-outs that look alike come from different tables or passages of the source.
Columns and labels:
[1] = target: sodium channel Nav1.5 (Homo sapiens, UniProt Q14524); conditions: read-out: IC50, block of sodium channel Nav1.5; cited from earlier work
[2] = tested on: hiPSC-CM microtissues; assay: Cardiac TEEM: optical mapping of action potentials in 3D human cardiac microtissues
Description: Optical mapping and automated action potential duration analysis. The inventors used an Olympus MVX10 microscope to image 1.2×1.2-mm^2 regions. Microtissues were loaded with voltage-sensitive di-4-ANEPPS (5 μM for ten minutes at 35° C.) for measurements of membrane potential (Vm). […] Fluorescence images were filtered using nonlinear bilateral filter (spatial filter: 5×5 window, temporal filter: 21-point window) to preserve action potential upstrokes from blurring. Typically, four microtissues were recorded simultaneously/scan at this magnification. A single microtissue is typically covered by ˜60 pixels at this magnification. The pixels with action potentials were identified from Fast Fourier transformation (FFT) of fluorescence signals. After appropriate thresholding and image segmentation, the region of each microtissue was grouped and the fluorescence signals from the pixels in the same microtissue were average and used for action potential analysis.
Optical mapping and automated action potential analysis (alternative). Microtissues were loaded with voltage-sensitive di-4-ANEPPS (5 μM for 10 min at 35° C.) for measurements of membrane potential (Vm). […] Typically, four microtissues were recorded simultaneously per scan at this magnification. A step-by-step illustration of automated data analysis is available in FIGS. 4A-G. Briefly, the pixels with APs were identified from Fast Fourier transformation (FFT) of fluorescence signals. After appropriate thresholding and image segmentation, the region of each microtissue was grouped and the fluorescence signals from the pixels in the same microtissue were average and used for action potential analysis.
Validation and screening of toxicants for arrhythmogenic risk. […] Concentrations are selected to span human exposure levels or blood serum levels and quantify dose-dependent changes over a wide range (with a goal of more than 10,000× change in concentration and at least 4-6 doses). A single mold of microtissues is imaged for approximately 1 hour to assure quality recordings without signal degradation due to tissue degeneration, enabling measurement under control conditions (zero compound) and 3 doses.
Validation and screening of toxicants for arrhythmogenic risk (alternative). […] Microtissues were stimulated with a platinum field stimulation electrode. Myopacer EP field stimulator, IonOptix, Milton, MA, USA). […] BPA was dissolved in 10% ethanol stock solution and diluted in Tyrode solution to the final concentration. Microtissues were exposed to vehicle (DMSO or ethanol) and the indicated concentrations of test compounds for 20 min, and action potentials were measured as described above.
The Cardiac Tissue-Engineered Model (TEEM) uses human cardiomyocytes derived from human pluripotent stem cells, which express all the human proteins, ion channels and currents necessary for assessing a human-specific arrhythmic and cardiotoxic response, including the seven critical ion channels identified by the FDA's CiPA initiative. […] The intensity of the signal gives a reading of voltage (in the millivolt range) overtime, which is the action potential trace. A similar dye that fluoresces in response to the intracellular calcium (Ca^2+) concentration gives a calcium transient (CaT) for each activation of each cardiac microtissue. See above.

[3] = tested on: rats; conditions: rodents; greater sensitivity in female rats than male rats; cited from earlier work
[4] = tested on: hiPSC-CM microtissues; assay: Calcium transient (CaT) recording of spontaneous activity in hiPSC-CM microtissues; format: cell-based, human; conditions: 100 nM
Description: FIGS. 1A-C are a set of graphs showing the stimulation protocol and CaT metrics. […] CaTs were recorded using Rhod-2/AM. […] Activation Interval (AI), the time between two CaTs, will be measured before and after drug perfusion to detect altered spontaneous activity. CaTs recorded with the genetically encoded optogenetic probe GCaMP.
The inventors also developed a platform suitable for cardiotoxicity testing that can detect alteration in Cai release and removal processes from hiPSC-CM microtissues by measuring detailed kinetic parameters of Cai dynamics during a proposed stimulation protocol as shown in FIGS. 1A-C.

[5] = tested on: late sodium current (INa,late); conditions: read-out: IC50, late sodium current (INa,late) block; cited from earlier work
[6] = target: INCX (Homo sapiens, UniProt P32418); conditions: cited from earlier work
[7] = target: late ICa (Homo sapiens, UniProt Q13936); conditions: cited from earlier work
[8] = target: peak ICa (Homo sapiens, UniProt Q13936); conditions: cited from earlier work
[9] = Ranolazine steady-state Cmax in blood serum (FDA documentation); format: in vivo; conditions: human, 1000 mg, 1000 mg b.i.d., bracketed conversion
[10] = 1000 mg b.i.d.; blood serum; cited from earlier work

sodium channel Nav1.5, sequence (Q14524 whole entry): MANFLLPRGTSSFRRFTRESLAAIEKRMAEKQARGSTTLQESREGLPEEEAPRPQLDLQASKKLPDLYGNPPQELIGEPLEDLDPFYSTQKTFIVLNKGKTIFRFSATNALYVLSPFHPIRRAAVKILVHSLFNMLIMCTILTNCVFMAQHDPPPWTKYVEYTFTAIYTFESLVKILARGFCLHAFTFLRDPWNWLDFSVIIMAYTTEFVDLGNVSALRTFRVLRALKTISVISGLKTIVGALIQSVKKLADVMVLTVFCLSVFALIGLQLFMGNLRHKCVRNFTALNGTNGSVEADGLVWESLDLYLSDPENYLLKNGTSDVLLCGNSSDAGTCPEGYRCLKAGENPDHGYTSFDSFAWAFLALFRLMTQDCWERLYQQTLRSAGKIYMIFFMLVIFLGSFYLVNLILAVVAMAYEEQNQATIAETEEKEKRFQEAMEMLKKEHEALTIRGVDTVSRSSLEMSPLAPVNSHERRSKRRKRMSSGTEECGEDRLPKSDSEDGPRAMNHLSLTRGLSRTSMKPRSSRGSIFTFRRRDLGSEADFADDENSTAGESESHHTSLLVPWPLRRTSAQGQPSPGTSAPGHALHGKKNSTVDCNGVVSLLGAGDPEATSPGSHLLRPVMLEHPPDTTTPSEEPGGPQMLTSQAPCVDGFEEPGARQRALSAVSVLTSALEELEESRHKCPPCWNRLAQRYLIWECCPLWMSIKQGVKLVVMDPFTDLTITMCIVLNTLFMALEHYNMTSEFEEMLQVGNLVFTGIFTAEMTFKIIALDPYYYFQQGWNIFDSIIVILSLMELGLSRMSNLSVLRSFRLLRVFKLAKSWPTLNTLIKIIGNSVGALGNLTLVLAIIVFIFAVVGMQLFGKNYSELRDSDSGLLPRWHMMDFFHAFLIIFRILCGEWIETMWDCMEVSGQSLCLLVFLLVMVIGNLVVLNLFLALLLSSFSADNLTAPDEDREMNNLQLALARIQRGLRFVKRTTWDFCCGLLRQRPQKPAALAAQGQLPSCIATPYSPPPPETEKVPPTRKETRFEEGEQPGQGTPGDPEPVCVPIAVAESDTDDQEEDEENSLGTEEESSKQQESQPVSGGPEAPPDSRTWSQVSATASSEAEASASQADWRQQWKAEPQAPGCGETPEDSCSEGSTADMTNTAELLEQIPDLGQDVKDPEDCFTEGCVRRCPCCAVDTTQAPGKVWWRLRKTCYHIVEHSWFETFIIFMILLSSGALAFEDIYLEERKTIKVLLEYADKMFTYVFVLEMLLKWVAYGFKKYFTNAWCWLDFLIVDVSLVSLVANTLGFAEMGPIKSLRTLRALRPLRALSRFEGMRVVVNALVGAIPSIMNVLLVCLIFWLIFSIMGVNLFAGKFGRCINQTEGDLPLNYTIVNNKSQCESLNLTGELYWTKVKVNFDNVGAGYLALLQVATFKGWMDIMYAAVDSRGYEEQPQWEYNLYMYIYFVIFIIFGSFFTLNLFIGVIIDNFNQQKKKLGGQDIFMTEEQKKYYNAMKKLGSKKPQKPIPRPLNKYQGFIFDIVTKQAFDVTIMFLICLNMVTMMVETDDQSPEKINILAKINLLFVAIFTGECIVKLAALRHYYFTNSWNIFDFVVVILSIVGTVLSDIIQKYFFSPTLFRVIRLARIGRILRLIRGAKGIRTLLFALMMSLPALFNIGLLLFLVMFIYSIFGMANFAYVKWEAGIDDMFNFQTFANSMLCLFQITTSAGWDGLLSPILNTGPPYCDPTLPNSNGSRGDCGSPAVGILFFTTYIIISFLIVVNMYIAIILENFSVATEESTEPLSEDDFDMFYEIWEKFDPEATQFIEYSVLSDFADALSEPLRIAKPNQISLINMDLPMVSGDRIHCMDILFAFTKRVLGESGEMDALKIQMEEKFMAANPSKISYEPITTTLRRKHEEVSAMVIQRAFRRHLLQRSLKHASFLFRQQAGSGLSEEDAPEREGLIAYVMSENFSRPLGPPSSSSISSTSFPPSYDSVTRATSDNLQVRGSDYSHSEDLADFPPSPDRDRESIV

## CC(C)(c1ccc(O)cc1)c1ccc(O)cc1 [BPA, bisphenol-A]
[1]
  IC50: 25 µM
[2]
  action potential duration measurements: shifts action potential duration measurements
  action potential rise time: slowed action potential rise time
  stimulation delay: increased stimulation delay
[2]; female, human, 20 min
  APD30 and APD50 relative to APD80: APD30 and APD50 were shortened more than APD80
[2]; human, 20 min, 1 nM
  Dose-dependent mean difference of APD30: 34.5043
  Dose-dependent mean difference of APD60: 37.3566
  Dose-dependent mean difference of APD80: 42.7763
  Dose-dependent mean difference of APDM×R: 34.0012
  Dose-dependent mean difference of APDtri: −3.327
  Dose-dependent mean difference of Rise Time: 1.176
[2]; human, 20 min, 10 nM
  Dose-dependent mean difference of APD30: −15.3826
  Dose-dependent mean difference of APD60: −14.0569
  Dose-dependent mean difference of APD80: 11.1129
  Dose-dependent mean difference of APDM×R: −14.786
  Dose-dependent mean difference of APDtri: −0.672
  Dose-dependent mean difference of Rise Time: −0.3497
[2]; human, 20 min, 100 nM
  Dose-dependent mean difference of APD30: −17.808
  Dose-dependent mean difference of APD60: −16.8623
  Dose-dependent mean difference of APD80: 10.0440
  Dose-dependent mean difference of APDM×R: −23.7763
  Dose-dependent mean difference of APDtri: −6.828
  Dose-dependent mean difference of Rise Time: −1.734
[2]; human, 20 min, 1000 nM
  Dose-dependent mean difference of APD30: −28.3006
  Dose-dependent mean difference of APD60: −31.0489
  Dose-dependent mean difference of APD80: −4.641
  Dose-dependent mean difference of APDM×R: −40.7783
  Dose-dependent mean difference of APDtri: −9.615
  Dose-dependent mean difference of Rise Time: −2.203
[3]
  concentration promoting arrhythmias: 0.001 µM

## CC(C)NCC(O)c1ccc(O)c(O)c1 (stereo not shown) [Isoproterenol, isoproterenol]
[4]
  spontaneous activity (CaTs, GCaMP): spontaneous activity increased
[2]; human, 20 min, 100 nM
  average reduction of APD80: 45 milliseconds

## COC(=O)C1=C(C)NC(C)=C([N+](=O)[O-])C1c1ccccc1C(F)(F)F (stereo not shown) [BayK8644]
[2]
  effect on APDtri: no effect on APDtri

## COc1ccccc1OCC(O)CN1CCN(CC(=O)Nc2c(C)cccc2C)CC1 (stereo not shown) [Ranolazine, ranolazine]
[5]
  IC50: 5.9 µM
[6]
  IC50: 91 µM
[7]
  IC50: 50 µM
[2]; human, 20 min, 2 μM
  Dose-dependent mean difference of APD30: 4.692
  Dose-dependent mean difference of APD60: −2.806
  Dose-dependent mean difference of APD80: 4.629
  Dose-dependent mean difference of APDM×R: −9.87
  Dose-dependent mean difference of APDtri: −7.031
  Dose-dependent mean difference of Rise Time: 0.1436
[2]; human, 20 min, 10 μM
  Dose-dependent mean difference of APD30: 20.71
  Dose-dependent mean difference of APD60: 20.5335
  Dose-dependent mean difference of APD80: 79.1112
  Dose-dependent mean difference of APDM×R: 13.1316
  Dose-dependent mean difference of APDtri: −7.337
  Dose-dependent mean difference of Rise Time: 1.025
[2]; human, 20 min, 100 μM
  Dose-dependent mean difference of APD30: 57.9565
  Dose-dependent mean difference of APD60: 108.574
  Dose-dependent mean difference of APD80: 242.133
  Dose-dependent mean difference of APDM×R: 353.211
  Dose-dependent mean difference of APDtri: 244.733
  Dose-dependent mean difference of Rise Time: 12.5916
[8]
  IC50: 296 µM
[9]; read-out: 95% of Cmax values
  Cmax: 0.98 to 14.2 µM
[9]; read-out: mean steady-state Cmax
  Cmax: 6 µM
[10]
  mean steady-state Cmax: 2569 ng/mL

## Nc1ccncc1 [4-AP]
[2]
  effect on APDtri: no effect on APDtri
[2]; 0.5 mM
  APD: APD prolongation
[2]; 0.5 mM, p=0.199
  slope of APDtri versus APDMxR: did not steepen
